Where two headings read alike, the source gives them in different places.
Experiments:
[1] = biological target: T1, recombinant RORγ Ligand Binding Domain (LBD) protein (Homo sapiens, UniProt P51449); assay: Radio-Ligand RORγ Binding Assay (Assay 1); conditions: radio-ligand competition, RORγ LBD, read-out: Avg ROR Bind Ki
T1 construct: 6×His; GST
T1 sequence (P51449 269-508 limits assumed): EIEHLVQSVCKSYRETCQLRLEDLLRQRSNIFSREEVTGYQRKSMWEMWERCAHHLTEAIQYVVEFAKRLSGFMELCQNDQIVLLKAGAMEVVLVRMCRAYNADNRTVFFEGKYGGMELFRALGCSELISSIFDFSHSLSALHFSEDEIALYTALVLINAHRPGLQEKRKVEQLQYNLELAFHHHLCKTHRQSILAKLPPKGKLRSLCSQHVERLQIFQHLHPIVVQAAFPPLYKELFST
Outline: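 Cell-free SPA competition between compound and 25-hydroxy[26,27-^3H]-cholesterol for 6×His-GST-tagged RORγ LBD in 50 mM HEPES pH 7.4 with NaCl, MgCl2, glycerol, CHAPS, octylglucoside and DTT. Mix was shaken 20 min, held 10 min at rt, then read after poly-Lys YSi beads. IC50 came from a four-parameter fit, and Ki from radioligand KD.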

[2] = biological target: T2, full-length RORγt in Jurkat cells (Homo sapiens, UniProt P51449); assay: RORγt 5×RORE Assay in Jurkat Cells (Assay 2); assay type: cell-based; conditions: 5×RORE luciferase reporter
T2 construct: transcriptional activity of the full-length RORγt in Jurkat cells; host or cells: Jurkat cells (ATCC TIB-152)
T2 sequence (P51449 1-497 isoform P51449-2): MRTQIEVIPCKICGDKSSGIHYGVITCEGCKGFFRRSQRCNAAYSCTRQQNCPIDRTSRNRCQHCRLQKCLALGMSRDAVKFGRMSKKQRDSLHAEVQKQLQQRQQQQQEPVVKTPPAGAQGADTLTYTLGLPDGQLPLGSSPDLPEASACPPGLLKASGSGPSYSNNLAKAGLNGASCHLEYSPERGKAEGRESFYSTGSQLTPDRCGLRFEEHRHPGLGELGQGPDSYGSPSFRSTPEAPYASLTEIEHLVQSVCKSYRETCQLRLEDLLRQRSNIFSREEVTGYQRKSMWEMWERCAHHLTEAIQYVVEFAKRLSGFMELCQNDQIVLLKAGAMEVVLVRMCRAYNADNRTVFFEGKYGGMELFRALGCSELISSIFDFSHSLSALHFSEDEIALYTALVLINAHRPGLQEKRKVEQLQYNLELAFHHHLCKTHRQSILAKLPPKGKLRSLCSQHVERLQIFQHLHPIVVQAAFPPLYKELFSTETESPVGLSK
Protocol: [formula] RORγt 5×RORE Assay in Jurkat Cells (Assay 2)
Compounds described herein were tested for RORγ inverse agonist activity in a cell-based, transcriptional activity assay. Secreted Nanoluc″ luciferase was used as a reporter for transcriptional activity of the full-length RORγt in Jurkat cells (ATCC, Cat. #TIB-152). A reporter plasmid was constructed by inserting 5 repeats of the ROR Response Element (RORE) […] (SEQ ID NO: 1) into a commercially available promoterless plasmid pNL1.3[secNluc] (Promega, Cat. #N1021) using KpnI and HindIII restriction sites. The expression plasmid for RORγt was purchased (Geneocopoeia, Cat. #EX-T6988-M02). Jurkat cells (30 million cells) were transfected with 11 μg of EX-T6988-MO2 and 26 μg of the reporter plasmid in OptiMEM® media using Lipofectamine LTX and Plus™ reagents (Life Technologies, Cat. #15338-100). After 5-6 hrs of incubation at 37° C./5% CO2, the cells were collected, resuspended in phenol-red free RPMI media containing 10% (v/v) delipidated FBS (Hyclone, Cat. #SH30855.03) and dispensed into 96-well clear bottom tissue culture plates (CoStar, Cat. #3603), at 80,000 cells per well. Tested compounds were added to the cells in the same media (final concentration of DMSO was 0.1% (v/v)), and the plates were incubated at 37° C./5% CO2 for 16-18 hrs. Luciferase activity in the conditioned supernatants was determined with NanoGlo® assay reagents (Promega, Cat. #N1130).

[3] = 25-hydroxy [26,27-3H]-cholesterol
[4] = Table 20, read-out: Avg ROR γt/5x IC5
[5] = head without unit (Tables 15, 17)
[6] = head without unit (Tables 15, 17), read-out: Avg ROR γt/5x IC50

Compound | Ki [1, 3] | IC50 [2, 4] | IC50 ([2]; read-out: Avg ROR γt/5x IC50) | Ki [1, 5] | IC50 [2, 6]
CCS(=O)(=O)c1ccc(CNC(=O)c2cc3ccnc(OCc4ccc(C(F)(F)F)cc4)c3n2C)cc1 [Hy4-3, N-(4-(ethylsulfonyl)benzyl)-1-methyl-7-((4-(trifluoromethyl)benzyl)oxy)-1H-pyrrolo[2,3-c]pyridine-2-carboxamide] | – | – | – | < 100 nM | 100 to 1000 nM
CCS(=O)(=O)c1ccc([C@H](CO)NC(=O)c2ccc3c(C4CC4)n(Cc4ccc(C(F)(F)F)cc4)nc3c2)cc1 [Hy3A-4, (R)-3-cyclopropyl-N-(1-(4-(ethylsulfonyl)phenyl)-2-hydroxyethyl)-2-(4-(trifluoromethyl)benzyl)-2H-indazole-6-carboxamide] | < 100 nM | – | < 100 nM | – | –
CCS(=O)(=O)c1ccc(CNC(=O)c2ccc3c(c2)CCN(Cc2ccc(Cl)cc2)[C@@H]3C(C)C)cc1 (single isomer, unassigned) [Hy2A-20.2] | < 100 nM | – | 100 to 1000 nM | – | –
CCS(=O)(=O)c1ccc([C@H](CO)NC(=O)c2ccc3c(OC[C@H]4CC[C@H](C(F)(F)F)CC4)nccc3c2)cc1 [Hy1A-8, N-((R)-1-(4-(ethylsulfonyl)phenyl)-2-hydroxyethyl)-1-(((1r,4R)-4-(trifluoromethyl)cyclohexyl)methoxy)isoquinoline-6-carboxamide] | < 100 nM | – | 100 to 1000 nM | – | –
CCS(=O)(=O)c1ccc(CNC(=O)c2ccc3c(c2)CCN(c2ncc(C(F)(F)F)cn2)C3C(C)C)cc1 (stereo not drawn) [Hy2A-2, N-(4-(ethylsulfonyl)benzyl)-1-isopropyl-2-(5-(trifluoromethyl)pyrimidin-2-yl)-1,2,3,4-tetrahydroisoquinoline-6-carboxamide] | 100 to 1000 nM | – | > 1000 nM | – | –
CC[C@H]1CN(c2ncc(C3CC3)cn2)Cc2cc(C(=O)N[C@@H](CO)c3ccc(S(=O)(=O)CC)cc3)ccc21 (single isomer, unassigned) [Hy7-11.2] | < 100 nM | > 1000 nM | – | – | –
CC[C@@H]1CN(C2CCC(F)(F)CC2)Cc2cc(C(=O)N[C@@H](CO)c3ccc(S(=O)(=O)CC)cc3)ccc21 (single isomer, unassigned) [Hy7-32.1] | < 100 nM | > 1000 nM | – | – | –
CCS(=O)(=O)c1ccc(CNC(=O)c2cnc3c(c2)CCN(C[C@H]2CC[C@H](C(F)(F)F)CC2)[C@H]3C(C)C)nc1 (single isomer, unassigned) [Hy2B-10.1] | – | – | – | 100 to 1000 nM | 100 to 1000 nM
CCS(=O)(=O)c1ccc([C@H](CO)NC(=O)c2ccc3c(COc4ccc(C(F)(F)F)cc4)nccc3c2)cc1 [Hy1A-24, (R)-N-(1-(4-(ethylsulfonyl)phenyl)-2-hydroxyethyl)-1-((4-(trifluoromethyl)phenoxy)methyl)isoquinoline-6-carboxamide] | < 100 nM | – | 100 to 1000 nM | – | –
CCS(=O)(=O)c1ccc(CNC(=O)c2ccc3c(c2)CN(c2ncc(Cl)cn2)C[C@@H]3C(C)C)cc1 (single isomer, unassigned) [Hy7-3.2] | < 100 nM | > 1000 nM | – | – | –
CCS(=O)(=O)c1ccc(CNC(=O)c2ccc3c(c2)C(C)(C)CN(Cc2cnc(C)cn2)[C@H]3C(C)C)cc1 (single isomer, unassigned) [Hy2A-22.1] | < 100 nM | – | 100 to 1000 nM | – | –
CCS(=O)(=O)c1ccc([C@H](CO)NC(=O)c2ccc3c(C4CC4)n(C[C@H]4CC[C@H](C(F)(F)F)CC4)nc3c2)nc1 [Hy3A-6, 3-cyclopropyl-N-((R)-1-(5-(ethylsulfonyl)pyridin-2-yl)-2-hydroxyethyl)-2-(((1r,4R)-4-(trifluoromethyl)cyclohexyl)methyl)-2H-indazole-6-carboxamide] | < 100 nM | – | < 100 nM | – | –

Continued, values first:

Ki [1, 3] | IC50 [2, 4] | IC50 ([2]; read-out: Avg ROR γt/5x IC50) | Ki [1, 5] | IC50 [2, 6] | Compound
< 100 nM | 100 to 1000 nM | – | – | – | CCOc1cnc(N2Cc3cc(C(=O)NCc4ccc(S(=O)(=O)CC)cc4)ccc3[C@H](C(C)C)C2)nc1 (single isomer, unassigned) [Hy7-5.1]
< 100 nM | – | 100 to 1000 nM | – | – | CCS(=O)(=O)c1ccc(CNC(=O)c2sc3nc(C)nc(OC[C@H]4CC[C@H](C(F)(F)F)CC4)c3c2C)cc1 [Hy6-2, N-(4-(ethylsulfonyl)benzyl)-2,5-dimethyl-4-(((1r,4r)-4-(trifluoromethyl)cyclohexyl)methoxy)thieno[2,3-d]pyrimidine-6-carboxamide]
< 100 nM | – | 100 to 1000 nM | – | – | CCS(=O)(=O)c1ccc([C@H](CO)NC(=O)c2ccc3c(OCc4ccc(F)cc4)nc(C)cc3c2)cc1 [Hy1A-13, (R)-N-(1-(4-(ethylsulfonyl)phenyl)-2-hydroxyethyl)-1-((4-fluorobenzyl)oxy)-3-methylisoquinoline-6-carboxamide]
< 100 nM | – | 100 to 1000 nM | – | – | CCS(=O)(=O)c1ccc(C(C)NC(=O)c2ccc3c(c2)CCN(Cc2cnc(C)cn2)C3C(C)C)cc1 (racemic) [Hy2A-18, N-(1-(4-(ethylsulfonyl)phenyl)ethyl)-1-isopropyl-2-((5-methylpyrazin-2-yl)methyl)-1,2,3,4-tetrahydroisoquinoline-6-carboxamide]
< 100 nM | > 1000 nM | – | – | – | CC[C@H]1CN(c2ncc(C(F)(F)F)cn2)Cc2cc(C(=O)NCc3ccc(S(=O)(=O)CC)cc3)ccc21 (single isomer, unassigned) [Hy7-9.2]
< 100 nM | – | < 100 nM | – | – | CCS(=O)(=O)c1ccc(CNC(=O)c2ccc3c(c2)CCN(Cc2ccc(Cl)cc2)[C@H]3C(C)C)cc1 (single isomer, unassigned) [Hy2A-20.1]
< 100 nM | 100 to 1000 nM | – | – | – | CC[C@H]1CN(c2ccc(C(F)(F)F)cc2)C(=O)c2cc(C(=O)NCc3ccc(S(=O)(=O)CC)cc3)ccc21 (single isomer, unassigned) [Hy7-12.2]
< 100 nM | – | > 1000 nM | – | – | CCS(=O)(=O)c1ccc([C@H](CO)NC(=O)c2ccc3c(OCC4CCOCC4)nc(C)cc3c2)cc1 [Hy1A-1, (R)-N-(1-(4-(ethylsulfonyl)phenyl)-2-hydroxyethyl)-3-methyl-1-((tetrahydro-2H-pyran-4-yl)methoxy)isoquinoline-6-carboxamide]
< 100 nM | > 1000 nM | – | – | – | CC[C@H]1CN(c2ncc(-c3ncco3)cn2)Cc2cc(C(=O)NCc3ccc(S(=O)(=O)CC)cc3)ccc21 (single isomer, unassigned) [Hy7-31.2]
< 100 nM | < 100 nM | – | – | – | CC[C@@H]1CN(c2ncc(C(F)(F)F)cc2C)Cc2cc(C(=O)NCc3ccc(S(=O)(=O)CC)cc3)ccc21 (single isomer, unassigned) [Hy7-13.1]
< 100 nM | – | < 100 nM | – | – | CCS(=O)(=O)c1ccc([C@H](CO)NC(=O)c2ccc3c(C4CC4)n(Cc4ccc(C(F)(F)F)cc4)nc3c2)nc1 [Hy3A-7, (R)-3-cyclopropyl-N-(1-(5-(ethylsulfonyl)pyridin-2-yl)-2-hydroxyethyl)-2-(4-(trifluoromethyl)benzyl)-2H-indazole-6-carboxamide]
< 100 nM | – | < 100 nM | – | – | CCS(=O)(=O)c1ccc([C@@H](CO)NC(=O)c2ccc3c(OC[C@H]4CC[C@H](C(F)(F)F)CC4)nc(C)cc3c2)cc1 [Hy1A-16, N-((S)-1-(4-(ethylsulfonyl)phenyl)-2-hydroxyethyl)-3-methyl-1-(((1r,4S)-4-(trifluoromethyl)cyclohexyl)methoxy)isoquinoline-6-carboxamide]

Source: patent publication US11008340B2, “Modulators of ROR-gamma” (Vitae Pharmaceuticals, LLC, priority 2015, dated 2021)
